IC50 data for eleven molecules are collected here from patent US11339130B1 (Blade Therapeutics, Inc., priority 2016, dated 2022).

Common to all, as to format: biochemical
The target in one experiment is T1, Human Calpain 1/NS1 (Homo sapiens, UniProt P07384).
T1 sequence (P07384 1-714): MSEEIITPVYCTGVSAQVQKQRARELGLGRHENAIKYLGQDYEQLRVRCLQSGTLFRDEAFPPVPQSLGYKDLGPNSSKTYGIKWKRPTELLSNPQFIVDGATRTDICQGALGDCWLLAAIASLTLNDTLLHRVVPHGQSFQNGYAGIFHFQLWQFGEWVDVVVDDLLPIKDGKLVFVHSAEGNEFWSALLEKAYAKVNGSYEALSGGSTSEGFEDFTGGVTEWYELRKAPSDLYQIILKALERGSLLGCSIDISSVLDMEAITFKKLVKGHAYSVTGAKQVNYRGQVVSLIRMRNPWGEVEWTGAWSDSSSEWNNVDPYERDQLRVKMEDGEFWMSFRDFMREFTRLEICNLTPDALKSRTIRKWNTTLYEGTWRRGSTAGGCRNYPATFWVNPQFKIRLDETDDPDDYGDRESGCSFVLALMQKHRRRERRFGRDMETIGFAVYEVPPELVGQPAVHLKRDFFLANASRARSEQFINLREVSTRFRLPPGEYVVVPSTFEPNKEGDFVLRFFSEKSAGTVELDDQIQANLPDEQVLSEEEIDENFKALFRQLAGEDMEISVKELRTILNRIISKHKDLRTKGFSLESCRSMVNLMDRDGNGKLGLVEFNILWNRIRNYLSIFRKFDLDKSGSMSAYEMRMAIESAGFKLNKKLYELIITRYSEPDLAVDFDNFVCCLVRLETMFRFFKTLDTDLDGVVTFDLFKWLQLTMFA
T1 sequence (P04632 1-268 partner): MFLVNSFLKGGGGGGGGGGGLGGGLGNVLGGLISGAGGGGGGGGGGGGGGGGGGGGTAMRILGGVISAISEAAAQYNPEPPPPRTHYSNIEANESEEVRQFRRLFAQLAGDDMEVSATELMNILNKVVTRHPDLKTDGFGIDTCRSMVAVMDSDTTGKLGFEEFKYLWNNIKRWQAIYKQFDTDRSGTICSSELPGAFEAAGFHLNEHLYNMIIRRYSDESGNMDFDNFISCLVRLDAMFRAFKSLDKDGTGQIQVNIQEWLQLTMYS
As to the kind of experiment: Calpain inhibition continuous fluorescence (FRET) assay, Human Calpain 1/NS1. The note with it: read-out: Human Calpain 1/NS1 IC50. The gist of the method: (§1)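 Continuous FRET read (ex 490/em 520 nm, 10 min) of calpain 1, 2 or 9 cleaving an internally quenched 5-FAM peptide, triggered by substrate with CaCl2 after enzyme–inhibitor incubation at ambient 25 °C, pH 7.5 Tris/NaCl/DTT buffer. IC50 from initial rates (1-5 min) via 4-parameter fit.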

The target of the next experiment is T2, Human Calpain 9/NS1 (Homo sapiens, UniProt O14815).
T2 sequence (O14815 1-690): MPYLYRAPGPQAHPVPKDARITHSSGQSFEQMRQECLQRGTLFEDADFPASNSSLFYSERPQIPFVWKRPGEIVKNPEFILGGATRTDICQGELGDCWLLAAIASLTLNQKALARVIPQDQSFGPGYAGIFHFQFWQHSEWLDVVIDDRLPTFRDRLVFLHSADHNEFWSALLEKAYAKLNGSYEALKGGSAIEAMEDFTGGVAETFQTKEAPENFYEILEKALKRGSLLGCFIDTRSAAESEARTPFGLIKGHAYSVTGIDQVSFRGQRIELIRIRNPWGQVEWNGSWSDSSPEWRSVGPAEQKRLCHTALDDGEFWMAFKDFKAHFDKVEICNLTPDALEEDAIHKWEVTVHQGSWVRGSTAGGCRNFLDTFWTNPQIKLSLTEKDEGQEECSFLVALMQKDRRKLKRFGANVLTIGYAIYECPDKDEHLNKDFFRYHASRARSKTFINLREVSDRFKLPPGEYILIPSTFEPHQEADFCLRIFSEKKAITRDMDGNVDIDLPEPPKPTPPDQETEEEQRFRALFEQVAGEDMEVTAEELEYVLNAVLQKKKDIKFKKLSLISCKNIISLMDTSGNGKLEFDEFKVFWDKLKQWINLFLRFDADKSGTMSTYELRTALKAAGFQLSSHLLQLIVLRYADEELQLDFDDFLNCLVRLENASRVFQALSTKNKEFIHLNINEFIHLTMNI
T2 sequence (P04632 1-268 partner): T1 sequence (P04632 1-268 partner)
As to the kind of experiment: Calpain inhibition continuous fluorescence (FRET) assay, Human Calpain 9/NS1. The note with it: read-out: Human Calpain 9/NS1 IC50. Put shortly:
as §1

The target in the next experiment is T3, Human Calpain 2/NS1 (Homo sapiens, UniProt P17655).
T3 sequence (P17655 1-700): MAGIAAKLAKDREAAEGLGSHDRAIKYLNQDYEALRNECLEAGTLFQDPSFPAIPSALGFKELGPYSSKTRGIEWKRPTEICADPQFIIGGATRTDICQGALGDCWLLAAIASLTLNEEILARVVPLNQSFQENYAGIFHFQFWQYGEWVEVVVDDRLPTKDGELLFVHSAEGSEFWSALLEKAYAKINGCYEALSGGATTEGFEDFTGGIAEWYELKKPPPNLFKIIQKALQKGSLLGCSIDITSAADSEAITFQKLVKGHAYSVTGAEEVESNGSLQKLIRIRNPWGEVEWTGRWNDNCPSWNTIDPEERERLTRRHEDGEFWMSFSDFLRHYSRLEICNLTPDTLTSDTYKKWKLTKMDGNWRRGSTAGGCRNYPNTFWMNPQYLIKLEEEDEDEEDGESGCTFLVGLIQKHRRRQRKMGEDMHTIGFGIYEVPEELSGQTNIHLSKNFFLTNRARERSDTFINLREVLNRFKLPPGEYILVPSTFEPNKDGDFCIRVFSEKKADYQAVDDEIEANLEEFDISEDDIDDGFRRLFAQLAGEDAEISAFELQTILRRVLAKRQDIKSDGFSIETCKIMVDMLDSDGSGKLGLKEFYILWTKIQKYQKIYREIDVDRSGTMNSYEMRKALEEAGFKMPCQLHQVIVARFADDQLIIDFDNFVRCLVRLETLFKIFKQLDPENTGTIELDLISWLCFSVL
T3 sequence (P04632 1-268 partner): T1 sequence (P04632 1-268 partner)
The experiment in a line: Calpain inhibition continuous fluorescence (FRET) assay, Human Calpain 2/NS1. The conditions noted are these: read-out: Human Calpain 2/NS1 IC50. Put shortly: as §1

Where two headings read alike, the source gives them in different places. Some results are limits rather than exact numbers.

On to `NC(=O)C(=O)[C@H](Cc1ccccc1)NC(=O)c1c(Cl)nsc1-c1ccccc1` [Compound 213, (S)—N-(4-amino-3,4-dioxo-1-phenylbutan-2-yl)-3-chloro-5-phenylisothiazole-4-carboxamide], for which the IC50 on Human Calpain 1/NS1 (Column A), on Human Calpain 9/NS1 (Column C) and at Human Calpain 2/NS1 (Column B) was less than 3 µM in each case.
For `Cc1cc(C(=O)N[C@@H](Cc2ccccc2)C(=O)C(N)=O)nn1-c1nccs1` [Compound 219, (S)—N-(4-amino-3,4-dioxo-1-phenylbutan-2-yl)-5-methyl-1-(thiazol-2-yl)-1H-pyrazole-3-carboxamide], the IC50 at Human Calpain 1/NS1 (Column A), on Human Calpain 9/NS1 (Column C) and at Human Calpain 2/NS1 (Column B) was 3 to 10 µM throughout.
Regarding `NC(=O)C(=O)[C@H](Cc1ccccc1)NC(=O)c1cncn1-c1ncc(-c2ccccc2)s1` [Compound 52, (S)—N-(4-amino-3,4-dioxo-1-phenylbutan-2-yl)-1-(5-phenylthiazol-2-yl)-1H-imidazole-5-carboxamide], the IC50 at Human Calpain 1/NS1 (Column A), on Human Calpain 9/NS1 (Column C) and at Human Calpain 2/NS1 (Column B) was less than 3 µM in each case.
Turning to `N#Cc1cc(C(=O)N[C@@H](Cc2ccccc2)C(=O)C(N)=O)nn1-c1ccccc1` [Compound 273, (S)—N-(4-amino-3,4-dioxo-1-phenylbutan-2-yl)-5-cyano-1-phenyl-1H-pyrazole-3-carboxamide], the IC50 on Human Calpain 1/NS1 (Column A) was greater than 10 µM; at Human Calpain 9/NS1 (Column C), less than 3 µM; at Human Calpain 2/NS1 (Column B), less than 3 µM.
For the molecule `NC(=O)C(=O)[C@H](Cc1ccccc1)NC(=O)c1c(F)cnn1-c1ccccc1` [Compound 258, (S)—N-(4-amino-3,4-dioxo-1-phenylbutan-2-yl)-4-fluoro-1-phenyl-1H-pyrazole-5-carboxamide], the IC50 on Human Calpain 1/NS1 (Column A), on Human Calpain 9/NS1 (Column C) and at Human Calpain 2/NS1 (Column B) was less than 3 µM throughout.
With `Cc1cc(C(=O)N[C@@H](Cc2ccccc2)C(=O)C(=O)NC2CC2)n(-c2cncc3ccccc23)n1` [Compound 134, (S)—N-(4-(cyclopropylamino)-3,4-dioxo-1-phenylbutan-2-yl)-1-(isoquinolin-4-yl)-3-methyl-1H-pyrazole-5-carboxamide], the IC50 at Human Calpain 1/NS1 (Column A), at Human Calpain 9/NS1 (Column C) and on Human Calpain 2/NS1 (Column B) was 3 to 10 µM in each case.
On to `Cn1ncc(C(=O)N[C@@H](Cc2ccccc2)C(=O)C(N)=O)c1-c1cncnc1` [Compound 176, (S)—N-(4-amino-3,4-dioxo-1-phenylbutan-2-yl)-1-methyl-5-(pyrimidin-5-yl)-1H-pyrazole-4-carboxamide], for which the IC50 at Human Calpain 1/NS1 (Column A), on Human Calpain 9/NS1 (Column C) and on Human Calpain 2/NS1 (Column B) was less than 3 µM each time.
As for `Cn1cc(C(=O)NC(Cc2ccccc2)C(=O)C(N)=O)c(N2CCOCC2)n1` (stereo not drawn) [Compound 614, N-(4-amino-3,4-dioxo-1-phenylbutan-2-yl)-1-methyl-3-morpholino-1H-pyrazole-4-carboxamide], the IC50 on Human Calpain 1/NS1, at Human Calpain 9/NS1 and at Human Calpain 2/NS1 was 3 to 10 µM each time.
In the case of `COc1ccc(F)c(-c2oncc2C(=O)NC(Cc2ccccc2)C(=O)C(N)=O)c1` (stereo not drawn) [Compound 619, N-(4-amino-3,4-dioxo-1-phenylbutan-2-yl)-5-(2-fluoro-5-methoxyphenyl)isoxazole-4-carboxamide], the IC50 at Human Calpain 1/NS1, at Human Calpain 9/NS1 and at Human Calpain 2/NS1 was less than 3 µM in each case.
For the molecule `Cc1noc(-c2ccccc2)c1C(=O)N[C@@H](CC(C)(C)C)C(=O)C(N)=O` [Compound 56], the IC50 on Human Calpain 1/NS1 (Column A), on Human Calpain 9/NS1 (Column C) and at Human Calpain 2/NS1 (Column B) was less than 3 µM throughout.
`Cc1nc(C(=O)N[C@@H](Cc2ccccc2)C(=O)C(N)=O)c(-c2ccccc2)s1` [Compound 54, (S)—N-(4-amino-3,4-dioxo-1-phenylbutan-2-yl)-2-methyl-5-phenylthiazole-4-carboxamide]: the IC50 on Human Calpain 1/NS1 (Column A), on Human Calpain 9/NS1 (Column C) and on Human Calpain 2/NS1 (Column B) was less than 3 µM each time.
